In this experiment the test system is cholesterol absorption. Nature of the experiment: Inhibition of cholesterol absorption in rats fed 1% cholesterol:0.5% cholic acid diet. The class given is in vivo, male Sprague-Dawley rats. Conditions: rat, 2 weeks; for response vs control in vivo at 0.03 % / response vs control in vivo at 0.001 % / response vs control in vivo at 0.003 % / response vs control in vivo at 0.01 %: po, 336 h; for response vs control in vivo at 0.03 %: dose .03% of the diet; for response vs control in vivo at 0.001 %: dose .001% of the diet; for response vs control in vivo at 0.01 %: dose .01% of the diet. The protocol: Inhibition of cholesterol absorption was determined by feeding male Sprague-Dawley rats, weighing 150-170 g, a 1% cholesterol:0.5% cholic acid diet for 2 weeks. The diet also contained compounds being tested at a dose of 0.001, 0.003, 0.01, or 0.03% of the diet. Control rats were fed the same diet without any compound. At the end of the test, the rats were sacrificed by decapitation. Blood was collected, centrifuged at […] for 10 minutes at 4° C.; and the serum was then analyzed for cholesterol and triglycerides enzymatically by the method of Trinder, P., Analyst, 77, 321 (1952) on a Centrifichem 400 analyzer. Livers were removed, a 0.4 g sample was taken from the center of the large lobe, and the sample was subjected to saponification using 25% saturated potassium hydroxide in ethanol. The resulting neutral sterols were extracted with petroleum ether and the extract analyzed for cholesterol. The effectiveness of the compound in inhibiting cholesterol absorption was measured by the lowering of either serum cholesterol or liver cholesterol relative the values for control rats.
Compounds which produced statistically significant inhibition of cholesterol absorption are considered to be active. Liver sterol (LS) and serum sterol (SS) values are expressed as a percentage of control values.

[1] abbreviates: read-out: LS (liver sterol), percentage of control values.
Setting [2] is: read-out: SS (serum sterol), percentage of control values.
Setting [3] is: dose .003% of the diet, read-out: LS (liver sterol), percentage of control values.
Where [4] appears, read: dose .003% of the diet, read-out: SS (serum sterol), percentage of control values.

Read-outs that look alike come from different tables or passages of the source.

In the case of “1-(n-Heptyl)-1-[4-(1,5-dimethylhexyl)benzyl]-3-(2,4,6-trifluoromethylphenyl)urea”, for the setting “dose .003% of the diet”, the “LS (liver sterol), percentage of control values” is 65 percentage of control values and the “SS (serum sterol), percentage of control values” was 57 percentage of control values.
Consider `CC(C)(C)CCN(Cc1ccc(Cl)cc1)C(=O)Nc1ccc(C(F)(F)F)cc1` [1-(3,3-Dimethylbutyl)-1-(4-chlorobenzyl)-3-(4-trifluoromethylphenyl)urea], for which the response vs control in vivo at 0.03 % by setting is: under setting [1], 70%; under setting [2], 85%.
`CCCCc1ccc(CN(CCC(C)(C)C)C(=O)Nc2ccc(C(F)(F)F)cc2)cc1` [1-(3,3-Dimethylbutyl)-1-[4-(n-butyl)benzyl]-3-(4-trifluoromethylphenyl)urea]: the response vs control in vivo at 0.03 % runs as follows: under setting [1], 86%; under setting [2], 100%.
Regarding `CC(C)CCCCN(Cc1ccc(CCC(C)C)cc1)C(=O)Nc1c(F)cc(F)cc1F` [1-(Isoheptyl)-1-[4-(isopentyl)benzyl]-3-(2,4,6-trifluorophenyl)urea], the response vs control in vivo at 0.001 % stood at 45% under setting [1] and 33% under setting [2].
Take `CC(C)CCCCN(Cc1ccc(CCC(C)C)cc1)C(=O)Nc1ccc(F)cc1F` [1-(Isoheptyl)-1-[4-(isopentyl)benzyl]-3-(2,4-difluorophenyl)urea]: the response vs control in vivo at 0.003 % is, setting by setting: under setting [3], 45%; under setting [4], 24%.
`Cc1cc(Cl)cc(C)c1NC(=O)N(CCCCC(C)C)Cc1ccc(CCC(C)C)cc1` [1-(Isoheptyl)-1-[4-(isopentyl)benzyl]-3-(4-chloro-2,6-dimethylphenyl)urea]: the response vs control in vivo at 0.001 % worked out at 40% under setting [1] and 40% under setting [2].
Take `CCCCCCOc1ccc(CN(CCCC)C(=O)Nc2c(C)cc(C)cc2C)cc1` [1-(n-Butyl)-1-(4-hexyloxybenzyl)-3-(2,4-trimethylphenyl)urea]: the response vs control in vivo at 0.03 % under setting [1] was determined as 15% and the response vs control in vivo at 0.03 % under setting [2] amounted to 54%.
In the case of `CCCCCCCN(Cc1ccc(C(C)CCCC(C)C)cc1)C(=O)Nc1ccc(F)cc1F` (stereo not shown) [1-(n-Heptyl)-1-[4-(1,5-dimethylhexyl)benzyl]-3-(2,4-difluorophenyl)urea], the response vs control in vivo at 0.001 % is, setting by setting: under setting [1], 88%; under setting [2], 83%.
Taken in the same sequence, the figures for `CCCCCCCN(Cc1ccc(C(C)CCCC(C)C)cc1)C(=O)Nc1c(C)cc(Cl)cc1C` (stereo not shown) [1-(n-Heptyl)-1-[4-(1,5-dimethylhexyl)benzyl]-3-(4-chloro-2,6-dimethylphenyl)urea] were 100% and 94%.
On to `CCCCCCCN(Cc1ccc(CC(C)(C)C)cc1)C(=O)Nc1c(F)cc(F)cc1F` [1-(n-Heptyl)-1-[4-(2,2-dimethylpropyl)phenylmethyl]-3-(2,4,6-trifluorophenyl)urea], for which the response vs control in vivo at 0.003 % runs as follows: under setting [3], 55%; under setting [4], 38%.
For `CCCCCCCN(Cc1ccc(CC(C)(C)C)cc1)C(=O)Nc1ccc(F)cc1F` [1-(n-Heptyl)-1-[4-(2,2-dimethylpropyl)phenylmethyl]-3-(2,4-difluorophenyl)urea], the response vs control in vivo at 0.01 % is, setting by setting: under setting [1], 51%; under setting [2], 22%.
On to `CCCCCCCN(Cc1ccc(CC(C)(C)C)cc1)C(=O)Nc1c(C)cc(Cl)cc1C` [1-(n-Heptyl)-1-[4-(2,2-dimethylpropyl)phenylmethyl]-3-(4-chloro-2,6-dimethylphenyl)urea], for which the response vs control in vivo at 0.003 % is, setting by setting: under setting [3], 54%; under setting [4], 41%.
As for `CCCCCCCN(Cc1ccc(CC(C)C(C)CC)cc1)C(=O)Nc1c(F)cc(F)cc1F` (stereo not shown) [1-(n-Heptyl)-1-[4-(2,3-dimethylpentyl)benzyl]-3-(2,4,6-trifluorophenyl)urea], the response vs control in vivo at 0.01 % runs as follows: under setting [1], 31%; under setting [2], 33%.
On to `CCCCCCCN(Cc1ccc(CC(C)C(C)CC)cc1)C(=O)Nc1ccc(F)cc1F` (stereo not shown) [1-(n-Heptyl)-1-[4-(2,3-dimethylpentyl)benzyl]-3-(2,4-difluorophenyl)urea], for which the response vs control in vivo at 0.01 % runs as follows: under setting [1], 63%; under setting [2], 48%.

The record behind these values is patent publication US4623662A, “Antiatherosclerotic ureas and thioureas” (American Cyanamid Company, priority 1985, dated 1986).
